# Measured values as given in patent US9271978B2 (Zenith Epigenetics Corp., priority 2012, dated 2016).
# Tests used:
# ApoA-I mRNA = experiment: Up-regulation of hApoA-1 mRNA transcription in Huh7 cells; type: cell-based, human; set-up: key: Active: Compounds with an EC170 value less than 30 μM were deemed to be active; details: 48 h treatment, ApoA-I mRNA by real-time PCR, Active = EC170 less than 30 μM
# Summary of the method: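 Huh7 cells treated with compound for 48 h. ApoA-I mRNA was then quantified in captured mRNA by one-step real-time RT-PCR. Fold induction calculated from Ct values relative to the matching DMSO control; EC170 is the concentration for 170% of control expression.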
# c-myc = experiment: Inhibition of c-myc expression in MV4-11 cells (mRNA, real-time PCR); type: cell-based; set-up: key: Active: Compounds with an IC50 value less than 30 μM were deemed to be active.; Not Active: Compounds with an IC50 value less than 30 μM were deemed to be active; details: Human AML MV4-11 cells, 3 h incubation
# Summary of the method: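 Duplex RT-qPCR of c-myc against cyclophilin cDNA gave IC50 from a dose–response curve. Input was isolated mRNA from 2.5×10^4 MV4-11 cells after 3 h exposure at 37 °C to compound or 0.1% DMSO vehicle.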
# [1] = system: human AML MV-4-11 (CRL-9591) cells; experiment: Inhibition of cell proliferation in MV4-11 cells; type: cell-based; set-up: key: Active: Compounds with an IC50 value less than 30 μM were deemed to be active.; Not Active: Compounds with an IC50 value less than 30 μM were deemed to be active; details: human AML MV-4-11 cells, 72 h; active = IC50 <30 μM
# Summary of the method: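 IC50 values come from blank-corrected proliferation relative to DMSO controls, read as 490 nm absorbance 3–4 h after CellTiter Aqueous One addition. Before that, cells seeded at 5×10^4/well were exposed for 72 h (37° C, 5% CO2) to triplicate two-fold compound dilutions spanning 30–0.2 μM.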
# hIL-6 mRNA = experiment: Inhibition of hIL-6 mRNA transcription in U937 cells; type: cell-based, human; set-up: key: Active: Compounds with an IC50 value less than 30 μM were deemed to be active.; Not Active: Compounds with an IC50 value less than 30 μM were deemed to be active; details: LPS stimulation, active = IC50 <30 μM
# Summary of the method: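 Readout is one-step real-time PCR of hIL-6 mRNA, normalized to an internal control and given as fold induction versus control. Cells: PMA (60 ng/mL, 3 days)-differentiated U937 macrophages, compound added 1 h before 1 ug/mL LPS, harvested after 3 h at 37° C.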
# [2] = target: T1, Brd4 bromodomain 1 (BRD4(1)) (Homo sapiens, UniProt O60885); experiment: Inhibition of tetra-acetylated histone H4 binding to Brd4 bromodomain 1 (TR-FRET); set-up: key: Active: Compounds with an IC50 value less than 30 μM were deemed to be active.; Not Active: Compounds with an IC50 value less than 30 μM were deemed to be active; details: tetra-acetylated histone H4 peptide, active = IC50 <30 μM
# T1 construct: Illustrative results with the first bromodomain of Brd4; made in house; host or cells: E. coli BL21 (DE3)
# Summary of the method: (§1)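 IC50 values come from dose-response curves of the 665 nm to 620 nm TR-FRET signal decrease, measured after 2 h at room temperature. Reactions contained 200 nM E. coli-expressed His-tagged bromodomain, 25-50 nM biotinylated tetra-acetylated H4 peptide, Eu-streptavidin plus XL665 anti-His antibody, with 30 mM HEPES pH 7.4, 320 mM KF and 0.2% DMSO.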
# [3] = target: T2, second bromodomain of Brd2 (BRD2(2)) (Homo sapiens, UniProt P25440); experiment: Inhibition of tetra-acetylated histone H4 binding to Brd2 bromodomain 2 (TR-FRET); set-up: key: Active: Compounds with an IC50 value less than 30 μM were deemed to be active.; Not Active: Compounds with an IC50 value less than 30 μM were deemed to be active; details: tetra-acetylated histone H4 peptide, active = IC50 <30 μM
# T2 construct: made in house; host or cells: E. coli BL21 (DE3)
# Summary of the method: as §1
# T2 sequence (P25440 344-453 limits assumed): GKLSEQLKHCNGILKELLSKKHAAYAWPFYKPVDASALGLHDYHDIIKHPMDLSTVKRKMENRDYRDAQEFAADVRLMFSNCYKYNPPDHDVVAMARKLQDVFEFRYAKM
Compound,ApoA-1 activity (EC170 <30 μM) (ApoA-I mRNA),c-myc activity (IC50 <30 μM) (c-myc),Cell Proliferation activity (IC50 <30 μM) [1],IL-6 activity (IC50 <30 μM) (hIL-6 mRNA),FRET activity (IC50 <30 μM) BRD4(1) [2],FRET activity (IC50 <30 μM) BRD2(2) [3]
"Cc1noc(C)c1-c1ccc(=O)n(Cc2cccc3cccnc23)c1 [Example 47, 5-(3,5-Dimethylisoxazol-4-yl)-1-(quinolin-8-ylmethyl)pyridin-2(1H)-one]",Active,Active,Active,Active,Active,Active
"Cc1noc(C)c1-c1ccc(=O)n(CC2CCC2)c1 [Example 49, 1-(Cyclobutylmethyl)-5-(3,5-dimethylisoxazol-4-yl)pyridin-2(1H)-one]",Active,Active,Active,Active,Active,Active
"Cc1noc(C)c1-c1ccc(=O)n(Cc2cccc(C(F)F)c2)c1 [Example 50, 1-(3-(Difluoromethyl)benzyl)-5-(3,5-dimethylisoxazol-4-yl)pyridin-2(1H)-one]",Active,Active,Active,Active,Active,Active
"Cc1noc(C)c1-c1ccc(=O)n(CCOc2ccccc2)c1 [Example 51, 5-(3,5-Dimethylisoxazol-4-yl)-1-(2-phenoxyethyl)pyridin-2(1H)-one]",Active,Not Active,Not Active,Active,Active,Active
"COc1cc(-c2ccc(=O)n(Cc3ccccc3)c2)cc(OC)c1OC [Example 52, 1-Benzyl-5-(3,4,5-trimethoxyphenyl)pyridin-2(1H)-one]",Active,Not Active,Not Active,Active,Active,Active
"COc1cc(-c2ccc(=O)n(Cc3ccccc3C#N)c2)cc(OC)c1OC [Example 53, 2-((2-Oxo-5-(3,4,5-trimethoxyphenyl)pyridin-1(2H)-yl)methyl)benzonitrile]",Active,Not Active,Active,Active,Active,Active
"COc1cc(Nc2ccc(=O)n(Cc3ccccc3)n2)cc(OC)c1OC [Example 54, 2-Benzyl-6-((3,4,5-trimethoxyphenyl)amino)pyridazin-3(2H)-one]",Active,Active,Active,Active,Active,Active
"Cc1noc(C)c1-c1ccc(=O)n(Cc2ccc(Cl)cn2)c1 [Example 55, 1-((5-Chloropyridin-2-yl)methyl)-5-(3,5-dimethylisoxazol-4-yl)pyridin-2(1H)-one]",Active,Active,Active,Active,Active,Active
"COc1ccc(Nc2ccc(=O)n(Cc3ccccc3)n2)cc1OC [Example 60, 2-Benzyl-6-((3,4-dimethoxyphenyl)amino)pyridazin-3(2H)-one]",Active,Not Active,Not Active,Active,Active,Active
"Cc1noc(C)c1-c1cc(C)c(=O)n(Cc2ccccc2)c1 [Example 66, 1-Benzyl-5-(3,5-dimethylisoxazol-4-yl)-3-methylpyridin-2(1H)-one]",Active,Active,Active,Active,Active,Active
"CNc1cc(-c2c(C)noc2C)cn(Cc2ccccc2)c1=O [Example 75, 1-Benzyl-5-(3,5-dimethylisoxazol-4-yl)-3-(methylamino)pyridin-2(1H)-one]",Active,Active,Active,Active,Active,Active
"COc1cc(-c2ccc(=O)n(Cc3ccc(NC(C)=O)cc3)n2)cc(OC)c1OC [Example 82, N-(4-((6-Oxo-3-(3,4,5-trimethoxyphenyl)pyridazin-1(6H)-yl)methyl)phenyl)acetamide]",Active,Not Active,Not Active,Active,Active,Active
"COc1cc(-c2ccc(=O)n(Cc3ccccc3)n2)ccc1O [Example 83, 2-Benzyl-6-(4-hydroxy-3-methoxyphenyl)pyridazin-3(2H)-one]",Active,Not Active,Active,Active,Active,Active
"COc1ccc(Nc2ccc(=O)n(Cc3ccccc3)n2)nc1OC [Example 99, 2-Benzyl-6-((5,6-dimethoxypyridin-2-yl)amino)pyridazin-3(2H)-one]",Active,Active,Not Active,Active,Active,Active
"Cc1noc(C)c1-c1ccc(=O)n(C(C)c2cccc(F)c2)c1 (stereo not drawn) [Example 104, 5-(3,5-Dimethylisoxazol-4-yl)-1-(1-(3-fluorophenyl)ethyl)pyridin-2(1H)-one]",Active,Active,Active,Active,Active,Active
